Key:
[1] = target: Histone-lysine N-methyltransferase EZH2 (Homo sapiens) (UniProt Q15910); test: Inhibition of EZH2 in human CD19+ B cells assessed as decrease in H3K27me3 levels measured as percentage abundance at 4 uM by Western blot analysis relative to control; type: cell-based; set-up: scale not given: the % may be the effect or the level left; conditions: CD19 positive B cell
[2] = target: Histone-lysine N-methyltransferase EZH2 (Homo sapiens) (UniProt Q15910); test: Inhibition of EZH2 in human CD19+ B cells assessed as decrease in H3K27me3 levels measured as percentage abundance at 4 uM after 2 days by Western blot analysis relative to control; type: cell-based; set-up: scale not given: the % may be the effect or the level left; conditions: CD19 positive B cell, time 2.0 day
[3] = target: Histone-lysine N-methyltransferase EZH2 (Homo sapiens) (UniProt Q15910); test: Inhibition of EZH2 in human CD19+ B cells assessed as decrease in H3K27me3 levels measured as percentage abundance at 4 uM after 10 days by Western blot analysis relative to control; type: cell-based; set-up: scale not given: the % may be the effect or the level left; conditions: CD19 positive B cell, time 10.0 day
[4] = target: Histone-lysine N-methyltransferase EZH2 (Homo sapiens) (UniProt Q15910); test: Inhibition of EZH2 in human CD19+ B cells assessed as decrease in H3K27me3 levels measured as percentage abundance at 4 uM after 6 days by Western blot analysis relative to control; type: cell-based; set-up: scale not given: the % may be the effect or the level left; conditions: CD19 positive B cell, time 6.0 day
[5] = target: Histone-lysine N-methyltransferase EZH2 (Homo sapiens) (UniProt Q15910); test: Inhibition of EZH2 in human CD19+ B cells assessed as decrease in H3K27me3 levels measured as percentage abundance at 4 uM after 4 days by Western blot analysis relative to control; type: cell-based; set-up: scale not given: the % may be the effect or the level left; conditions: CD19 positive B cell, time 4.0 day
[6] = target: Histone-lysine N-methyltransferase EZH2 (Homo sapiens) (UniProt Q15910); test: Inhibition of EZH2 in human CD19+ B cells assessed as decrease in cell viability at 4 uM after 5 to 13 days by annexin-V/PI staining based flow cytometry; conditions: CD19 positive B cell, time 5-13 day, TDE = time-dependent effect
[7] = target: Histone-lysine N-methyltransferase EZH2 (Homo sapiens) (UniProt Q15910); test: Inhibition of EZH2 in human CD19+ B cells assessed as decrease in H3K27me3 levels measured as percentage abundance at 4 uM after 8 days by Western blot analysis relative to control; type: cell-based; set-up: scale not given: the % may be the effect or the level left; conditions: CD19 positive B cell, time 8.0 day

Chain of Histone-lysine N-methyltransferase EZH2 (Homo sapiens) (Q15910 whole entry, looked up): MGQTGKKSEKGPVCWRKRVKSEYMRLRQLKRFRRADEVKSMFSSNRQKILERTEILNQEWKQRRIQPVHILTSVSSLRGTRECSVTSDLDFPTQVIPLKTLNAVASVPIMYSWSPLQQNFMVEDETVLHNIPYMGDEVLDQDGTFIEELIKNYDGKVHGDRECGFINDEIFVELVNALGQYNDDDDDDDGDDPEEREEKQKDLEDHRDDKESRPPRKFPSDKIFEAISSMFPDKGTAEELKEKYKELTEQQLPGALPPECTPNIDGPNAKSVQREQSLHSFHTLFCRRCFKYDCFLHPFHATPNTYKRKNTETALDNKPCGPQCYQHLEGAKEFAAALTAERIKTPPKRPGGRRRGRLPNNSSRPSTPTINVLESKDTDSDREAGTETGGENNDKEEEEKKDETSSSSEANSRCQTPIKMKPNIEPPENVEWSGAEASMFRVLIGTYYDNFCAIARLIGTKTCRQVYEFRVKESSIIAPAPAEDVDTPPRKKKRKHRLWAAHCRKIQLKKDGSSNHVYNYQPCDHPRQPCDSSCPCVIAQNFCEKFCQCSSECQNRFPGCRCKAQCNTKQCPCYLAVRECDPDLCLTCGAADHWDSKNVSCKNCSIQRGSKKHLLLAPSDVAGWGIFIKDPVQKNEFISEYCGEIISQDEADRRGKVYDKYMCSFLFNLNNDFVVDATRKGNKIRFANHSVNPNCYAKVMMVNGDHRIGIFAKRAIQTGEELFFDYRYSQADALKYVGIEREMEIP

Question: What does the source list for `CCCc1cc(C)[nH]c(=O)c1CNC(=O)c1cc(-c2ccnc(N3CCN(C)CC3)c2)cc2c1cnn2C(C)C`?
Answer: Activity [1]: 66%; Activity [2]: 99.6%; Activity [3]: 65.2%; Activity [4]: 99.5%; Activity [5]: 100%; inhibition [6]: Tde; Activity [7]: 65.1%
